Source: patent US20250290117A1, “MOLECULAR PHENOTYPIC ANTIMICROBIAL SUSCEPTIBILITY TESTING” (priority 2024, published 2025)

Columns and labels:
P. aeruginosa [1] = experiment: Molecular phenotypic antimicrobial susceptibility test with direct PCR (no extraction DNA purification step); assay type: cell-based, Pseudomonas aeruginosa
Description: (§1) Detection of Molecular Phenotypic Antimicrobial Susceptibility. Disclosed herein are the methods for the detection of phenotypic antimicrobial susceptibility via molecular methods. The present invention describes how a specimen 100 with a known microbial load is incubated and then exposed to a panel of antimicrobial agents to determine sensitivity (prevention of growth) or resistance (allowance of growth) to the specific antimicrobial agents tested utilizing molecular methods.
Sample Collection. Specimens 100 are collected from patients using sterile collection processes that are employed in routine clinical care. Specimens are transported to the testing facility in boric acid preservative. Specimens 100 are subsequently divided into a first sample 104 and a second sample 108.
Preparation of the Specimens for Testing. The specimens 100 are put through a pathogen identification process using PCR technology (e.g., using the first sample 104). The process for pathogen isolation includes steps of harvesting the pathogen (e.g., via centrifugation), isolating pathogen DNA via a DNA isolation and/or purification kit, and performing PCR on the pathogen DNA via PCR components (e.g., primers, enzymes, buffers) as would be known to the skilled artisan. Simultaneously, an additional aliquot of the same specimen (e.g., the second sample 108) is placed with liquid culture media and incubated for 4-6 hours. This aliquot is used for antimicrobial susceptibility testing if indicated based on the pathogen detection results. After pathogen identification is completed and if more than 10,000 cells/mL of bacteria (e.g., eligible bacteria) are detected in the source specimen, the second sample 108 then enters the antimicrobial susceptibility phase of testing. Specimens 100 with lower pathogen loads could also be utilized in the antibiotic susceptibility phase of testing with or without a longer incubation period.
(§2) Preparation of Antimicrobial Susceptibility Testing Plates. Antimicrobial solutions are prepared at known concentrations. The specific antimicrobials and their concentrations are selected based on the pathogen of interest and the described antimicrobial resistance breakpoints for that specimen pathogen and antimicrobial combination. These antimicrobials have been selected based on those commonly utilized by healthcare providers in routine clinical care for the specific type of suspected infection. The number and types of antimicrobials utilized can be customized based on the infection source, pathogen detected, patient-specific factors such as allergies or other health conditions (e.g., chronic kidney disease or concurrent medication use), or healthcare provider preferences such as antimicrobial availability or cost.
The antimicrobial solutions are prepared in liquid culture media (such as Muller Hinton Broth) to achieve the desired antimicrobial concentration and are then stored at −80° C. until use. For a given specimen, each antimicrobial is tested at a single or multiple antimicrobial concentration(s) which is its established breakpoints for sensitivity. The antimicrobial solutions are prepared and plated out for each specific pathogen. This allows ease of use on the day of testing after defrosting the plate 112. Table 1, which illustrates the results of molecular phenotypic antimicrobial susceptibility testing when more than one organism is present in the source specimen, provides an example of an antimicrobial plate 112 prepared for this purpose. Of note, control wells containing only culture media are present on all plates 112. This allows for evaluation of pathogen load when no antimicrobial is present.
Specimen Exposure to Antimicrobial Agents. The 1 mL aliquot of the specimen 100 previously mixed with culture media and incubated is obtained. Using optical density measurements as a guide, the specimen 100 is diluted to 0.5 McFarland. […]

P. aeruginosa [2] = experiment: Traditional culture-based antimicrobial susceptibility test; assay type: cell-based, Pseudomonas aeruginosa; conditions: P. aeruginosa isolate MRSN1938
Description: Table 5 illustrates the results of an example antimicrobial agent susceptibility test of the current application versus a traditional culture-based antimicrobial agent susceptibility test for multiple specimens with different pathogens, in accordance with one or more embodiments of the disclosure. These specimens were tested with direct PCR (e.g., no extraction DNA purification step prior to PCR). As in Tables 1, 2, and 3, the results of the test of the current application are similar to the results from the traditional test.
Result Reporting to Healthcare Providers. The results from the antimicrobial exposure are reported to the ordering healthcare provider. This information can be utilized by the healthcare provider when selecting an antimicrobial regimen for their individual patient based on these individual specimen results and patient specific factors. […] The current standard of care for antimicrobial susceptibility testing involves the growth, isolation, and exposure of pathogens to antimicrobials. This traditional culture and sensitivity process can take multiple days to obtain results, limiting the ability of healthcare providers to receive timely results to make actionable changes in patient care or management. Healthcare providers desire a method to obtain antimicrobial susceptibility results with quicker turn-around-time. This application discloses a molecular-based phenotypic antimicrobial susceptibility method which involves pathogen exposure to a panel of antimicrobial agents at their specified minimum inhibitory concentration breakpoints for sensitivity. This method allows for more timely antimicrobial susceptibility results.

Escherichia coli [3] = experiment: Molecular phenotypic antimicrobial susceptibility test (extraction or DNA purification prior to PCR); assay type: cell-based
Description: as §1
Sample Collection. Specimens 100 are collected from patients using sterile collection processes that are employed in routine clinical care. Specimens are transported to the testing facility in boric acid preservative.
Preparation of the Specimens for Testing. […] The process for pathogen isolation includes steps of harvesting the pathogen (e.g., via centrifugation), isolating pathogen DNA via a DNA isolation and/or purification kit, and performing PCR on the pathogen DNA via PCR components (e.g., primers, enzymes, buffers) as would be known to the skilled artisan. […] This aliquot is used for antimicrobial susceptibility testing if indicated based on the pathogen detection results. […] Specimens 100 with lower pathogen loads could also be utilized in the antibiotic susceptibility phase of testing with or without a longer incubation period.
as §2
The antimicrobial solutions are prepared in liquid culture media (such as Muller Hinton Broth) to achieve the desired antimicrobial concentration and are then stored at −80° C. until use. For a given specimen, each antimicrobial is tested at a single or multiple antimicrobial concentration(s) which is its established breakpoints for sensitivity. The antimicrobial solutions are prepared and plated out for each specific pathogen. […] This allows for evaluation of pathogen load when no antimicrobial is present.
Specimen Exposure to Antimicrobial Agents. The 1 mL aliquot of the specimen 100 previously mixed with culture media and incubated is obtained. Using optical density measurements as a guide, the specimen 100 is diluted to 0.5 McFarland.
Antimicrobial exposure plates are typically placed into an incubator for 12-16 hours.
Nucleic Acid Amplification of Antimicrobial Agent Exposed Pathogens. The antimicrobial exposure plate is removed after the period of incubation. The specimen then undergoes a purification or lysis step. For example, the specimen may undergo a purification step (e.g., magnetic bead-based or other separation protocol to isolate genetic material). In another example, the specimen may undergo a cell lysis step. For example, buffer (e.g., lysis buffer) may be added and incubated in the thermal cycler for preparation for direct PCR. Next, the specimen may undergo a polymerase chain reaction (PCR) testing protocol, whereby a semi-quantitative PCR method is utilized. This may be completed either with or without a specific extraction protocol step. The pathogens can be individually targeted and detected, or a universal genetic sequence can be utilized to detect the antimicrobial susceptibility of the specimen as a whole.

Escherichia coli [4] = experiment: Traditional culture-based antimicrobial susceptibility test; assay type: cell-based
Text: Table 3 illustrates the results of an example antimicrobial agent susceptibility test of the current application versus a traditional culture-based antimicrobial agent susceptibility test for multiple Escherichia coli isolates, in accordance with one or more embodiments of the disclosure. These specimens underwent extraction or DNA purification prior to PCR. As in Tables 1 and 2, the results of the test of the current application are similar to the results from the traditional test. […]
Table 8 illustrates the results of an example antimicrobial agent susceptibility test of the current application versus a traditional culture-based antimicrobial agent susceptibility test for a low level positive with <10,000 cells/mL in the original specimen. These specimens were tested with direct PCR (e.g., no extraction DNA purification step prior to PCR) after 16 hours of incubation. As in Tables 1, 2, 3, 5, and 7, the results of the test are similar to the traditional test. […]

**Q.** Which “Ct at Sensitive Breakpoint” value (P. aeruginosa [1]; P. aeruginosa isolate MRSN1938, Ct at control (average) 12.031) does the source give for `CC(C)(O/N=C(\C(=O)N[C@@H]1C(=O)N2C(C(=O)[O-])=C(C[n+]3ccccc3)CS[C@H]12)c1csc(N)n1)C(=O)O` [Ceftazidime] here?
**A.** Its value is 24.596.

**Q.** What about the “Molecular Antimicrobial Susceptibility Result” value (P. aeruginosa [1]; P. aeruginosa isolate MRSN1938, at sensitive breakpoint) of the same compound?
**A.** The value was “Sensitive (Antimicrobial wells with pathogen load detected below the control wells (typically >2 cycle thresholds later) may be reported as Sensitive)”.

**Q.** And the “Traditional Culture Result” value (P. aeruginosa [2])?
**A.** The value was “Sensitive”.

**Q.** What about the “Ct at Sensitive Breakpoint” value (Escherichia coli [3]; E. coli isolate 1, Ct at control (average) 21.238) of the same compound?
**A.** Its value is 25.605.

**Q.** And the “Molecular Antimicrobial Susceptibility Result” value (Escherichia coli [3]; E. coli isolate 1, at sensitive breakpoint)?
**A.** Its value is “Sensitive (Antimicrobial wells with pathogen load detected below the control wells (typically >2 cycle thresholds later) may be reported as Sensitive)”.

**Q.** What about the “Ct at Sensitive Breakpoint” value (Escherichia coli [3]; E. coli isolate 2, Ct at control (average) 21.270) of the same compound?
**A.** The value was 22.508.

**Q.** And the “Molecular Antimicrobial Susceptibility Result” value (Escherichia coli [3]; E. coli isolate 2, at sensitive breakpoint)?
**A.** Its value is “Sensitive (Antimicrobial wells with pathogen load detected below the control wells (typically >2 cycle thresholds later) may be reported as Sensitive)”.

**Q.** What about the “Ct at Sensitive Breakpoint” value (Escherichia coli [3]; E. coli isolate 3, Ct at control (average) 22.0995) of the same compound?
**A.** The value was 22.583.

**Q.** And the “Molecular Antimicrobial Susceptibility Result” value (Escherichia coli [3]; E. coli isolate 3, at sensitive breakpoint)?
**A.** Its value is “Resistant”.

**Q.** And the “Traditional Culture Result” value (Escherichia coli [4]; E. coli isolate 1 (Table 3))?
**A.** Its value is “Sensitive”.

**Q.** And the “Traditional Culture Result” value (Escherichia coli [4]; E. coli isolate 2 (Table 3))?
**A.** The value was “Sensitive”.

**Q.** And the “Traditional Culture Result” value (Escherichia coli [4]; E. coli isolate 3 (Table 3))?
**A.** Its value is “Sensitive”.
